From patent publication US9655886B2, “Substituted 2,3,4,5-tetrahydro-1H-pyrido[4,3-b]indoles, methods for use thereof” (priority 2015, dated 2017)

Legend:
[1] = system: BALB/c male mice; test: Passive Avoidance of Mice in a Shuttle Chamber, scopolamine or MK-801 (Example 8); format: in vivo; conditions: scopolamine 0.3 mg/kg or MK-801 0.1 mg/kg; SB-742457 1 mg/kg; FIGS. 5-10
Method: A shuttle chamber (Ugo Basile, Italy) consisted of two sections was used. […] The sections were connected via a hole which could be shut with a vertical door. The floor was made of transverse metal bars on which DC current impulses could be fed. Experiments were carried out on aged male mice of line BALB/c weighing 20-24 grams.
On the first day of the experiment 30 minutes before training the mice were injected intraintestinally with physiological solution of scopolamine (0.3 mg/kg) or scopolamine in combination with antagonists of 5-HT6 receptors 1.2.1(2)HCl, 1.2.1(4)HCl or 1.2.1(5)HCl. Each group consisted of at least 8 animals. The animals were placed in the light section, and the latent period of the first entry into the dark chamber was registered. Then the vertical door was closed and the animal was punished by 0.6 mA DC current for 3 seconds. After that the animal was carried back to its living cell. In 22-24 hours the same animal was placed in the light section of the shuttle chamber once again and the latent period before its entry into the dark section, the total time of its stay in the light section and the number of entries into the dark section were registered. Each observation lasted for 5 minutes.
The experiment was carried out in the same way as in example 7. On the first day 30 minutes before training the mice were injected intra-intestinally with a physiological solution of scopolamine (0.3 mg/kg) or MK-801(0.1 mg/kg).

[2] = system: BALB/c male mice; test: Training Mice in the Morris Water labyrinth, scopolamine; format: in vivo; conditions: scopolamine 0.6 mg/kg; 1.2.1(5)HCl 0.1 mg/kg, 1.2.1(1)HCl 1 mg/kg, tacrine 3 mg/kg; FIG. 11-12
Method: A circular pool of 100 cm diameter and of 30 cm sides was used. It was filled with water at 20-22° C. A circular ceramic platform of 14 cm height was placed in the pool. The behavior of the animals was registered using an automated computer video system in addition with software package of movement analyzer Any-maze (Stoelting Co., US). The experiments were carried out on aged male mice of BALB/c line weighing 20-24 grams. Before the experiments mice fit for learning were selected. This was done by placing the platform 1 cm above the water level and putting an animal on the platform for 20 seconds. Then the mouse was put in the water on the opposite side of the pool and allowed to find the platform and climb onto it for 60 seconds, where it was left for additional 20 seconds. After that the mouse was repeatedly immersed in the water on the opposite side of the pool and allowed to search for the platform. If it failed in finding the platform within 60 seconds the experimentator helped it to find the platform and climb onto it. If the mice couldn't find the platform itself in two consecutive attempts it was excluded from the experiment.
During the next two days the platform was placed 0.5 centimeters lower the water level. Every day the mice were given four attempts for finding the platform within 60 seconds. The time interval between the attempts was 20 seconds, during which the mice stayed on the platform. Every day before the first attempt the mice was placed on the platform for 20 seconds. The time needed for finding and climbing the platform was registered. The animals were sunk in water in two different places on the side of the pool opposite to the platform.
The animals of the control group were injected with physiological solution. At least 8 animals were used in each group.
On the third day the platform was removed and each animal was placed in the pool once for a period of 60 seconds. The time each mouse spent in the area where the platform had been located during the previous days was registered. […]

[3] = system: SHK male mice; test: Recognition of New Objects by Mice Under Scopolamine and MK-801; format: in vivo; conditions: scopolamine 1 mg/kg and MK-801 0.2 mg/kg; FIG. 13-14
Method: The experiments were carried out in a closed cross shaped labyrinth which consisted of 4 peripheral sections connected with the central chamber via a 7×7 cm hole. The labyrinth was made of black plastic and its sections were of 14×14×14 cm size. The top cover of the labyrinth was transparent.
A mouse was placed in the central section of the labyrinth and allowed to investigate the environment. A mouse was considered to have entered a section once all of its four paws were inside the chamber. A test was considered to be completed when the mouse had moved 12 times between the sections, having made a total of 13 visits. The floor of the labyrinth was cleaned after each animal.
With each mouse the test was carried out twice with 1 hour interval.
During the first test, each section of the labyrinth contained a circular plastic cup of 3 cm height and 7 cm diameter. During the second test the cover in each of the two opposing sections was replaced by a conical glass bulb of 7 cm height and 4 cm across the bottom. The time that the mice spent in each section of the labyrinth was registered and the index of new object recognition was calculated as the ratio of the time spent in the sections with the bulbs to the time spent in all sections of the labyrinth. If no preference is given to the sections with new objects the index is 0.5.
When new objects appear the mice spend more time in the section containing them that results in an increased recognition index. Scopolamine (1 mg/kg) and MK-801 (0.2 mg/kg) disturbed learning (memory) that leads to lowering of the recognition index.

[4] = system: BALB/c male mice; test: Mice Behavior an Elevated Cross Shaped Labyrinth (tranquilizing action); format: in vivo; conditions: preference index for open sections, number of defecations; FIG. 19-21
Text: The length of each section in the labyrinth is 30 cm, the width is 5 cm, the height of the walls is 15 cm. Two opposite sections are closed by transparent walls on the sides and on the butt ends, the other two sections are lit and opened. A mouse was placed in the center of the labyrinth and for the next five minutes the number of entries the open and closed sections and the time spent in each type of section was registered. […] The animals usually avoid the open sections (the preference index is between 0.2 and 0.3).

[5] = system: BALB/c male mice; test: Passive Avoidance of Mice in a Shuttle Chamber, memory disturbed by scopolamine (Example 7); format: in vivo; conditions: scopolamine 0.3 mg/kg, injected 30 minutes before training; FIGS. 2-4
Method: A shuttle chamber (Ugo Basile, Italy) consisted of two sections was used. […] The sections were connected via a hole which could be shut with a vertical door. The floor was made of transverse metal bars on which DC current impulses could be fed. Experiments were carried out on aged male mice of line BALB/c weighing 20-24 grams. On the first day of the experiment 30 minutes before training the mice were injected intraintestinally with physiological solution of scopolamine (0.3 mg/kg) or scopolamine in combination with antagonists of 5-HT6 receptors 1.2.1(2)HCl, 1.2.1(4)HCl or 1.2.1(5)HCl. Each group consisted of at least 8 animals. The animals were placed in the light section, and the latent period of the first entry into the dark chamber was registered. Then the vertical door was closed and the animal was punished by 0.6 mA DC current for 3 seconds. After that the animal was carried back to its living cell. In 22-24 hours the same animal was placed in the light section of the shuttle chamber once again and the latent period before its entry into the dark section, the total time of its stay in the light section and the number of entries into the dark section were registered. Each observation lasted for 5 minutes. The experiment was carried out during the day time in an isolated laboratory using white noise at a level of about 70 decibel above the human hearing threshold. Scopolamine causes the disturbance of training (memory loss) which results in […]. The fact that 5-HT6 receptor antagonists can improve the learning ability that has been disturbed by scopolamine is regarded as evidence for their nootropic effect.

[6] = target: T1, 5-HT6 receptor (Homo sapiens, UniProt P50406); test: Inhibition of serotonine stimulated intracellular cAMP in HEK 293 cells with expressed 5-HT6 receptor (LANCE cAMP); format: cell-based; conditions: HEK 293 cells with artificially expressed 5-HT6 receptor; reduction of cAMP induced by serotonine
T1 construct: expressed in transfected cells; host or cells: HEK 293
Method: The concentration of intracellular cAMP was determined using a LANCE cAMP reagent (PerkinElmer) by the method described by the manufacturer: [http://las.perkinelmer.com/content/Manuals/MAN_LANCEcAMP384KitUser.pdf].

T1 sequence (P50406 whole entry): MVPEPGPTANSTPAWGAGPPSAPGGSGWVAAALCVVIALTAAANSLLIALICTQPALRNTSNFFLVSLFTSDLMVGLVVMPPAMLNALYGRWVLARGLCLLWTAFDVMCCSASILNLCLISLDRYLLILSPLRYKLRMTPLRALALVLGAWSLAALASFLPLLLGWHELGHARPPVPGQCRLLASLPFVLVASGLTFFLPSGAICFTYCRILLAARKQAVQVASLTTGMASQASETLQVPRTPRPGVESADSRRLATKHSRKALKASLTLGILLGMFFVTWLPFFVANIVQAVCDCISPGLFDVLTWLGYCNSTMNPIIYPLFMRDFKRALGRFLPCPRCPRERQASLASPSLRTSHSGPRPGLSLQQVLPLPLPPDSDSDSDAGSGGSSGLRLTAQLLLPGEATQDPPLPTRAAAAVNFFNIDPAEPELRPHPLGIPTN

Structure (SMILES)	nootropic action, passive avoidance [1]	improvement of mice's training, Morris water labyrinth [2]	nootropic action, new object recognition [3]	tranquilizing action, elevated cross shaped labyrinth [4]	nootropic action (memory enhancement disturbed by scopolamine), passive avoidance [5]	further results
Cc1ccc2c(c1)c1c(n2CCc2ccccc2)CCN(C)C1.Cl [1.2.1(1)HCl, 2,8-dimethyl-5-(2-phenylethyl)-2,3,4,5-tetrahydro-1H-pyrido[4,3-b]indole hydrochloride]	highest activity	statistically significant improvement of mice's training	nootropic action, the level of which is the most prominent	tranquilizing action, which is the most prominent	–	–
Cc1ccc2c(c1)c1c(n2CCc2ccncc2)CCN(C)C1.Cl [1.2.1(2)HCl, 2,8-dimethyl-5-[2-(pyridin-4-yl)ethyl]-2,3,4,5-tetrahydro-1H-pyrido[4,3-b]indole hydrochloride]	–	–	–	–	nootropic action which is the most prominent	–
Cc1ccc2c(c1)c1c(n2CCc2ccccn2)CCN(C)C1.Cl [1.2.1(4)HCl, 2,8-dimethyl-5-[2-(pyridin-2-yl)ethyl]-2,3,4,5-tetrahydro-1H-pyrido[4,3-b]indole hydrochloride]	–	–	–	–	nootropic action which is the most prominent	–
Cc1ccc2c(c1)c1c(n2CCc2ccc(C)nc2)CCN(C)C1.Cl [1.2.1(5)HCl, 2,8-dimethyl-5-[2-(6-methylpyridin-3-yl)ethyl]-2,3,4,5-tetrahydro-1H-pyrido[4,3-b]indole hydrochloride]	nootropic action	statistically significant improvement of mice's training	nootropic action	tranquilizing action	nootropic action	–
CN1CCc2c(c3ccccc3n2C#Cc2ccccc2)C1 [1.3(1), 2-methyl-5-phenylethynyl-2,3,4,5-tetrahydro-1H-pyrido[4,3-b]indole]	–	–	–	–	–	IC50 [6]: 4.09 µM
O=C1CC2(CCCC2)CC(=O)N1CCCCN1CCN(c2ncccn2)CC1 [Buspiron]	–	–	–	tranquilizing action	–	–
O=S(=O)(c1ccccc1)c1cnc2c(N3CCNCC3)cccc2c1 [SB-742457]	inactive	–	nootropic action	–	–	–
CC12CC3CC(C)(C1)CC(N)(C3)C2 [memantine]	–	–	nootropic action	–	–	–
Nc1c2c(nc3ccccc13)CCCC2 [tacrine]	–	statistically significant improvement of mice's training	–	–	–	–
